System: healthy human volunteers
Test: Ocular side effects (discomfort, hyperemia) in healthy human volunteers
Conditions: healthy human volunteers

Compound | Irritating effect (ocular discomfort), in words
CC(C)OC(=O)CCC/C=C\C[C@@H]1[C@@H](/C=C/C(=O)CCc2ccccc2)[C@H](O)C[C@@H]1O [Substance 3, 15-dehydro-17-phenyl-18,19,20-trinor-PGF2α-isopropylester] | none of the compounds had any significant irritating effect
18-phenyl-19,20-dinor-PGF2α-isopropylester [Substance 10] | none of the compounds had any significant irritating effect
CC(C)OC(=O)CCC/C=C\C[C@@H]1[C@@H](CC[C@@H](O)CCc2ccccc2)[C@H](O)C[C@@H]1O [Substance 9, 13,14-dihydro-17-phenyl-18,19,20-trinor-PGF2α-isopropylester] | none of the compounds had any significant irritating effect
CC(C)OC(=O)CCC/C=C\C[C@@H]1[C@@H](/C=C/[C@H](O)CCc2ccccc2)[C@H](O)C[C@@H]1O [Substance 7, 15-(R)-17-phenyl-18,19,20-trinor-PGF2α-isopropylester] | none of the compounds had any significant irritating effect
CC(C)OC(=O)CCC/C=C\C[C@@H]1[C@@H](/C=C/[C@@H](O)CCc2ccccc2)[C@H](O)C[C@@H]1O [Substance 2, 17-phenyl-18,19,20-trinor-PGF2α-isopropylester] | none of the compounds had any significant irritating effect

Same assay, conditions: in man

Compound | Conjunctival/episcleral hyperemia, in words
CC(C)OC(=O)CCC/C=C\C[C@@H]1[C@@H](/C=C/C(=O)CCc2ccccc2)[C@H](O)C[C@@H]1O [Substance 3, 15-dehydro-17-phenyl-18,19,20-trinor-PGF2α-isopropylester] | very little if any conjunctival/episcleral hyperemia
CC(C)OC(=O)CCC/C=C\C[C@@H]1[C@@H](CC[C@@H](O)CCc2ccccc2)[C@H](O)C[C@@H]1O [Substance 9, 13,14-dihydro-17-phenyl-18,19,20-trinor-PGF2α-isopropylester] | very little if any conjunctival/episcleral hyperemia

System: monkey
Test: not given
Conditions: compounds or their esters, Bito et al, 1989; cited from earlier work

Compound | IOP effect, in words
CCCCC[C@H](O)/C=C/[C@H]1C=CC(=O)[C@@H]1C/C=C\CCCC(=O)O [PGA2] | lower IOP
CCCCC[C@H](O)/C=C/[C@H]1[C@H](O)CC(=O)[C@@H]1C/C=C\CCCC(=O)O [PGE2] | lower IOP

System: man
Test: not given
Conditions: clinical studies, Flach and Eliason (1988); cited from earlier work

Compound | IOP effect, in words
CCCCC[C@H](O)/C=C/[C@H]1[C@H](O)CC(=O)[C@@H]1C/C=C\CCCC(=O)O [PGE2] | IOP-lowering effect

System: healthy human volunteers
Test: Intraocular pressure (tonometry) in healthy human volunteers
Format: in vivo
Conditions: healthy human volunteers (Table VI)
Description: (§1) The intraocular pressur (IOP) was determined in animals with a pneumatonometer (Digilab Modular One™, Bio Rad), specially calibrated for the eye of the particular species. The cornea was anaesthetized with 1–2 drops of oxibuprocain before each XOP measurement. In healthy human volunteers IOP was measured with applanation tonometry or with an air puff tonometer (Keeler pulsair). For applanation tonometry either a pneumatonometer (Digilab) or Goldmann's applanation tonometer mounted on a slit lamp microscope was used. The cornea was anaesthetized with oxibuprocain before each measurement with applanation tonometry. No local anaesthesia was employed before measurement with the pulsair tonometer.

Compound | Effect on intraocular pressure, in words
CC(C)OC(=O)CCC/C=C\C[C@@H]1[C@@H](/C=C/C(=O)CCc2ccccc2)[C@H](O)C[C@@H]1O [Substance 3, 15-dehydro-17-phenyl-18,19,20-trinor-PGF2α-isopropylester] | significantly reduced the intraocular pressure
18-phenyl-19,20-dinor-PGF2α-isopropylester [Substance 10] | significantly reduced the intraocular pressure
CC(C)OC(=O)CCC/C=C\C[C@@H]1[C@@H](CC[C@@H](O)CCc2ccccc2)[C@H](O)C[C@@H]1O [Substance 9, 13,14-dihydro-17-phenyl-18,19,20-trinor-PGF2α-isopropylester] | significantly reduced the intraocular pressure
CC(C)OC(=O)CCC/C=C\C[C@@H]1[C@@H](/C=C/[C@H](O)CCc2ccccc2)[C@H](O)C[C@@H]1O [Substance 7, 15-(R)-17-phenyl-18,19,20-trinor-PGF2α-isopropylester] | significantly reduced the intraocular pressure
CC(C)OC(=O)CCC/C=C\C[C@@H]1[C@@H](/C=C/[C@@H](O)CCc2ccccc2)[C@H](O)C[C@@H]1O [Substance 2, 17-phenyl-18,19,20-trinor-PGF2α-isopropylester] | significantly reduced the intraocular pressure

Same assay, conditions: healthy human volunteers, Exp eye, baseline; dose μg: (2) 1; (7) 10; (3) 10; (9) 1; (10) 5

Compound | Intraocular pressure, time after administration 0 hours [mmHg]
CC(C)OC(=O)CCC/C=C\C[C@@H]1[C@@H](/C=C/C(=O)CCc2ccccc2)[C@H](O)C[C@@H]1O [Substance 3, 15-dehydro-17-phenyl-18,19,20-trinor-PGF2α-isopropylester] | 17.7 ± 0.6
18-phenyl-19,20-dinor-PGF2α-isopropylester [Substance 10] | 14.4 ± 1.0
CC(C)OC(=O)CCC/C=C\C[C@@H]1[C@@H](CC[C@@H](O)CCc2ccccc2)[C@H](O)C[C@@H]1O [Substance 9, 13,14-dihydro-17-phenyl-18,19,20-trinor-PGF2α-isopropylester] | 14.2 ± 0.5
CC(C)OC(=O)CCC/C=C\C[C@@H]1[C@@H](/C=C/[C@H](O)CCc2ccccc2)[C@H](O)C[C@@H]1O [Substance 7, 15-(R)-17-phenyl-18,19,20-trinor-PGF2α-isopropylester] | 12.9 ± 0.9
CC(C)OC(=O)CCC/C=C\C[C@@H]1[C@@H](/C=C/[C@@H](O)CCc2ccccc2)[C@H](O)C[C@@H]1O [Substance 2, 17-phenyl-18,19,20-trinor-PGF2α-isopropylester] | 11.9 ± 1.7

Same assay, conditions: healthy human volunteers, Exp eye; dose μg: (2) 1; (7) 10; (3) 10; (9) 1; (10) 5

Compound | Intraocular pressure, time after administration 4 hours [mmHg] | Intraocular pressure, time after administration 6 hours [mmHg]
CC(C)OC(=O)CCC/C=C\C[C@@H]1[C@@H](/C=C/C(=O)CCc2ccccc2)[C@H](O)C[C@@H]1O [Substance 3, 15-dehydro-17-phenyl-18,19,20-trinor-PGF2α-isopropylester] | 14.6 ± 0.2 | 13.6 ± 0.7
18-phenyl-19,20-dinor-PGF2α-isopropylester [Substance 10] | 12.2 ± 1.1 | 12.4 ± 1.2
CC(C)OC(=O)CCC/C=C\C[C@@H]1[C@@H](CC[C@@H](O)CCc2ccccc2)[C@H](O)C[C@@H]1O [Substance 9, 13,14-dihydro-17-phenyl-18,19,20-trinor-PGF2α-isopropylester] | 13.3 ± 1.1 | 12.2 ± 0.4
CC(C)OC(=O)CCC/C=C\C[C@@H]1[C@@H](/C=C/[C@H](O)CCc2ccccc2)[C@H](O)C[C@@H]1O [Substance 7, 15-(R)-17-phenyl-18,19,20-trinor-PGF2α-isopropylester] | 11.8 ± 0.6 | 11.0 ± 0.3
CC(C)OC(=O)CCC/C=C\C[C@@H]1[C@@H](/C=C/[C@@H](O)CCc2ccccc2)[C@H](O)C[C@@H]1O [Substance 2, 17-phenyl-18,19,20-trinor-PGF2α-isopropylester] | 11.0 ± 0.9 | 10.1 ± 0.7

Same assay, conditions: healthy human volunteers, Exp eye; dose μg: (2) 1; (7) 10; (9) 1; (10) 5

Compound | Intraocular pressure, time after administration 8 hours [mmHg]
18-phenyl-19,20-dinor-PGF2α-isopropylester [Substance 10] | 11.9 ± 0.7
CC(C)OC(=O)CCC/C=C\C[C@@H]1[C@@H](CC[C@@H](O)CCc2ccccc2)[C@H](O)C[C@@H]1O [Substance 9, 13,14-dihydro-17-phenyl-18,19,20-trinor-PGF2α-isopropylester] | 12.5 ± 0.9
CC(C)OC(=O)CCC/C=C\C[C@@H]1[C@@H](/C=C/[C@H](O)CCc2ccccc2)[C@H](O)C[C@@H]1O [Substance 7, 15-(R)-17-phenyl-18,19,20-trinor-PGF2α-isopropylester] | 11.2 ± 1.3
CC(C)OC(=O)CCC/C=C\C[C@@H]1[C@@H](/C=C/[C@@H](O)CCc2ccccc2)[C@H](O)C[C@@H]1O [Substance 2, 17-phenyl-18,19,20-trinor-PGF2α-isopropylester] | 9.8 ± 0.7

System: cynomolgus monkeys
Test: Intraocular pressure (pneumatonometer) in cynomolgus monkeys
Format: in vivo, cynomolgus monkey
Conditions: cynomolgus monkeys, experimental eye (E), topical, baseline; dose μg: PGF2α-IE 1.5; (1) 3.2; (2) 3.2; (9) 10.4; (10) 3.1; (8) 3.2
Description: as §1

Compound | Intraocular pressure, time after administration 0 hours
18-phenyl-19,20-dinor-PGF2α-isopropylester [Substance 10] | E 9.7 ± 0.9 mmHg
CC(C)OC(=O)CCC/C=C\C[C@@H]1[C@@H](CC[C@@H](O)CCc2ccccc2)[C@H](O)C[C@@H]1O [Substance 9, 13,14-dihydro-17-phenyl-18,19,20-trinor-PGF2α-isopropylester] | E 11.1 ± 0.9 mmHg
CC(C)OC(=O)CCC/C=C\C[C@@H]1[C@@H](/C=C/[C@@H](O)CCc2ccccc2)[C@H](O)C[C@@H]1O [Substance 2, 17-phenyl-18,19,20-trinor-PGF2α-isopropylester] | E 12.8 ± 0.6 mmHg

Same assay, conditions: cynomolgus monkeys, experimental eye (E), topical; dose μg: PGF2α-IE 1.5; (1) 3.2; (2) 3.2; (9) 10.4; (10) 3.1; (8) 3.2

Compound | Intraocular pressure, time after administration 1–2 hours [mmHg] | Intraocular pressure, time after administration 3–4 hours [mmHg] | Intraocular pressure, time after administration 6 hours [mmHg]
18-phenyl-19,20-dinor-PGF2α-isopropylester [Substance 10] | 9.6 ± 1.1 | 9.6 ± 0.7 | 8.8 ± 0.9
CC(C)OC(=O)CCC/C=C\C[C@@H]1[C@@H](CC[C@@H](O)CCc2ccccc2)[C@H](O)C[C@@H]1O [Substance 9, 13,14-dihydro-17-phenyl-18,19,20-trinor-PGF2α-isopropylester] | 8.3 ± 0.6 | 6.9 ± 0.4 | 7.7 ± 0.8
CC(C)OC(=O)CCC/C=C\C[C@@H]1[C@@H](/C=C/[C@@H](O)CCc2ccccc2)[C@H](O)C[C@@H]1O [Substance 2, 17-phenyl-18,19,20-trinor-PGF2α-isopropylester] | 11.9 ± 0.5 | 8.6 ± 0.3 | 9.5 ± 0.7

Same assay, conditions: monkeys (primates), topical (Table V)

Compound | Intraocular pressure lowering effect, in words
18-phenyl-19,20-dinor-PGF2α-isopropylester [Substance 10] | reduced the intraocular pressure
CC(C)OC(=O)CCC/C=C\C[C@@H]1[C@@H](/C=C/[C@@H](O)CCc2ccccc2)[C@H](O)C[C@@H]1O [Substance 2, 17-phenyl-18,19,20-trinor-PGF2α-isopropylester] | retained IOP lowering effect

System: rabbit eye
Test: Conjunctival hyperemia after topical application in rabbits
Format: in vivo
Conditions: topical (Table IV)
Description: Conjunctival hyperemia after topical application of the test substances was evaluated in rabbits. […] Conjunctival hyperemia was evaluated on a scale from 0 to 4, 0 indicating complete absence of any hyperemia, and 4 indicating marked hyperemia with conjunctival chemosis.

Compound | Conjunctival hyperemia, in words
CC(C)OC(=O)CCC/C=C\C[C@@H]1[C@@H](/C=C/C(=O)CCc2ccccc2)[C@H](O)C[C@@H]1O [Substance 3, 15-dehydro-17-phenyl-18,19,20-trinor-PGF2α-isopropylester] | advantageous in this respect
CC(C)OC(=O)CCC/C=C\C[C@@H]1[C@@H](CC[C@@H](O)CCc2ccccc2)[C@H](O)C[C@@H]1O [Substance 9, 13,14-dihydro-17-phenyl-18,19,20-trinor-PGF2α-isopropylester] | advantageous in this respect

Same assay, conditions: topical, conjunctival hyperemia scale 0 to 4, dose 0.5 μg, PGF2α-IE 0.1 μg

Compound | Degree of hyperemia
CC(C)OC(=O)CCC/C=C\C[C@@H]1[C@@H](/C=C/C(=O)CCc2ccccc2)[C@H](O)C[C@@H]1O [Substance 3, 15-dehydro-17-phenyl-18,19,20-trinor-PGF2α-isopropylester] | 0.7 ± 0.3
CC(C)OC(=O)CCC/C=C\C[C@@H]1[C@@H](CC[C@@H](O)CCc2ccccc2)[C@H](O)C[C@@H]1O [Substance 9, 13,14-dihydro-17-phenyl-18,19,20-trinor-PGF2α-isopropylester] | 1.3 ± 0.3
CC(C)OC(=O)CCC/C=C\C[C@@H]1[C@@H](/C=C/[C@H](O)CCc2ccccc2)[C@H](O)C[C@@H]1O [Substance 7, 15-(R)-17-phenyl-18,19,20-trinor-PGF2α-isopropylester] | 2.0 ± 0.0
CC(C)OC(=O)CCC/C=C\C[C@@H]1[C@@H](/C=C/[C@@H](O)CCc2ccccc2)[C@H](O)C[C@@H]1O [Substance 2, 17-phenyl-18,19,20-trinor-PGF2α-isopropylester] | 2.0 ± 0.3

System: cat eye
Test: Ocular discomfort (irritation) after topical application in cats
Conditions: topical (Table III)
Description: The ocular discomfort after application of the test substances was evaluated in cats. The behaviour of cats after topical application of the test drug was followed and ocular discomfort was graded on a scale from 0 to 3, 0 indicating complete absence of any signs of discomfort, and 3 indicating maximal irritation as obvious from complete lid closure.
Therefore, the cat eye, being very sensitive to prostaglandins was used for evaluating ocular discomfort and the rabbit eye with pronounced tendency to hyperemic reactions was used for evaluating conjunctival and episcleral hyperemia.

Compound | Ocular irritation (discomfort), in words
CC(C)OC(=O)CCC/C=C\C[C@@H]1[C@@H](/C=C/[C@@H](O)CCc2ccccc2)[C@H](O)C[C@@H]1O [Substance 2, 17-phenyl-18,19,20-trinor-PGF2α-isopropylester] | complete loss of ocular irritation
